Laboratory results taken from US8796302B2 (priority 2004, dated 2014).

Columns and labels:
[1] = system: TH-IR (dopaminergic) neurons in mesencephalic neuron-glia cultures; assay: TH-IR neuron count and morphology in LPS-treated neuron-glia cultures; type: cell-based, rat; conditions: for dendrite network (immunocytochemical analysis): LPS; for attenuation of LPS-induced reduction in the number of TH-IR neurons: 30 min pretreatment
[2] = system: dopaminergic neurons in mesencephalic neuron-enriched cultures; assay: [3H]DA uptake in neuron-enriched cultures (direct, conditioned media, reconstituted); type: cell-based, rat; conditions: for DA uptake with 3-HM-treated astroglia conditioned media: 24 h conditioning, % of non-conditioned control, vehicle conditioned 122%
Protocol: Mixed-glia cultures were first prepared from brains of 1-day-old Fisher 344 rat pups, as described previously (Liu, et al. 2001). Mechanically dissociated brain cells (5×10^7) were seeded onto 150 cm^2 culture flasks in Dulbecco's modified Eagle's medium containing 10% heat-inactivated FBS, 2 mM L-glutamine, 1 mM sodium pyruvate, 100 μM non-essential amino acids, 50 U/ml penicillin, and 50 μg/ml streptomycin. The cultures were maintained at 37° C. in a humidified atmosphere of 5% CO2 and 95% air, and medium was replenished 4 days after the initial seeding. Upon reaching confluence (usually 12-14 days later), microglia were detached from astroglia by shaking the flasks for 5 hours at 180 rpm. Astroglia were then detached with trypsin-EDTA and seeded in the same culture medium. After five or more consecutive passages, cells were seeded onto 24-well plates (10^5/well) for experiments. Immunocytochemical staining of the astroglia enriched cultures with either anti-GFAP or anti-OX-42 antibody indicated astroglial purity of greater than 98% and less than 2% of microglia contamination.
Conditioned medium derived from rat primary astroglial cultures treated with vehicle (ACM) or 0.6 mM VPA (ACM-VPA) were harvested after 12, 24 and 48 hours of incubation. Midbrain neuron-enriched cultures seeded in 24-well plates at a density of 5×10^5 cells/well were treated with vehicle, VPA, ACM or ACM-VPA for 7 days. Neurotrophic effect was quantified by [^3H]DA uptake assay.
Rat mesencephalic neuron-enriched cultures are prepared from dissociated ventral mesencephalic cells from embryonic day 13-14 Fisher 344 rats were seeded first at a density of 5×10^5/well to poly-D-lysine-precoated 24-well culture plates. […] Three days later, the culture medium was replaced with the maintenance medium. Routinely, the seven-day-old neuron-enriched cultures were used for treatment. […] Of the Neu-N immunoractive neurons, 2.7-3.9% was TH-IR neurons.
To explore whether astroglial cells are also the main target of sodium butyrate-induced neurotrophic effect, we prepared media conditioned by incubation of astroglial cultures in the absence or presence 0.6 mM sodium butyrate. Conditioned medium derived from rat primary astroglial cultures treated with vehicle (ACM) or 0.6 mM sodium butyrate (ACM-Sodium butyrate) were harvested after 48 hours of incubation. Midbrain neuron-enriched cultures seeded in 24-well plates at a density of 5×10^5 cells/well were treated with vehicle, sodium butyrate, ACM or ACM-Sodium butyrate for 7 days. Seven days after treatment, neurotrophic effect for dopaminergic neurons was assessed by [^3H]DA uptake assays.
Various concentrations of 3-HM (0.1-5 μM) or vehicle were added to the following different cell cultures: neuron-enriched cultures (A); reconstituted cultures by adding 10% and 20% (5×10^4/well and 1×10^5/well) of microglia to the neuron-enriched cultures (B); reconstituted cultures by adding 40% and 50% (2×10^5/well and 2.5×10^5/well) of astroglia to the neuron-enriched cultures (C). Cultures are prepared as described in Example 25. The [^3H]DA uptake measurements were performed […] after treatment. Results were expressed as a percentage of the vehicle-treated control cultures and were the mean±SE from five (A) and four (B,C) independent experiments in triplicate. *P<0.05 and **P, 0.001 compared with the vehicle-treated control cultures. #P<0.05 compared with the augmented cultures with 40% astroglia. N, neuron-enriched cultures; N+10% (20%) MG: 10% (20%) of microglia were added back to the neuron-enriched cultures; N+40% (50%) AS: 40% (50%) of astroglia were added back to the neuron-enriched cultures.
To confirm the possible role of astroglia in the neurotrophic effect of 3-HM, conditioned media from astroglia-enriched cultures (prepared as described above) treated with either 3-HM (1-5 μM) or vehicle for 24 hours were prepared. […]

[3] = system: dopaminergic neurons in rat primary mesencephalic neuron-glia cultures; assay: DA uptake / TH-IR count in neuron-glia cultures without toxin (spontaneous DA neuronal death, neurotrophic effect); type: cell-based
Protocol: In Example 23, [^3H]DA uptake assay and immunohistochemical analysis for TH-IR neurons were used to assess the viability of DA neurons in rat primary mesencephalic neuron-glia cultures in which approximately 1% of the neurons are dopaminergic. [^3H]DA uptake assays were performed as described in Example 1.
Rat primary mesencephalic neuron-glia cultures were prepared from the ventral mesencephalic tissues of embryonic day 13-14 Fisher 344 rats. Dissociated cells were seeded at a density of 5×10^5/well to poly-D-lysine-precoated 24-well plates. Cells were maintained at 37° C. in a humidified atmosphere of 5% CO2 and 95% air, in minimal essential medium containing 10% fetal bovine serum (FBS), 10% horse serum, 1 gm/l glucose, 2 mM L-glutamine, 1 mM sodium pyruvate, 100 μM non-essential amino acids, 50 U/ml penicillin, and 50 μg/ml streptomycin. Unless otherwise indicated, seven-day-old cultures were used for treatment.
Seven days after seeding, each well was treated with indicated concentration of VPA or its vehicle. Seven days after treatment, the viability of dopaminergic neurons was assessed by [^3H]DA uptake assays. Quantified results are expressed as mean±SEM of percentage of vehicle-treated cultures from three experiments performed in duplicate. *, p<0.05 compared with the corresponding vehicle-treated control cultures.
Next, the rat primary mesencephalic neuron-glia cultures were treated with 0.6 mM VPA for various times to determine the treatment time-dependency. Rat primary mesencephalic neuron-glia cultures in a 24-well plate were treated with 0.6 mM VPA or its vehicle for indicated time 7 days after seeding. The viability of dopaminergic neurons was assessed by [^3H]DA uptake assays, shown in FIG. 37 or counting of TH-IR neurons, shown in FIG. 38. Quantified results are expressed as mean±SEM of percentage of vehicle-treated control cultures from three experiments performed in duplicate. *, p<0.05 compared with the corresponding vehicle-treated control cultures. […] VPA time-dependently induces survival-promoting effects against spontaneous DA neuronal death in rat primary mesencephalic neuron-glia cultures.
Rat primary mesencephalic neuron-glia cultures seeded in a 24-well culture plate at density of 5×10^5 per well were treated with indicated concentrations of sodium butyrate or its vehicle 7 days after seeding. The viability of dopaminergic neurons was assessed by DA uptake assays 7 days after sodium butyrate addition.
Mesencephalic neuron-glia cultures, prepared as described above, were pretreated with vehicle or 3-HM (1-5 μM) before the treatment of LPS (10 ng/ml). Seven days later, the degeneration of dopaminergic neurons was determined by the functional assay of [^3H]DA uptake and by the morphometric measurement of dopaminergic neurons following immunostaining with an anti-TH antibody. [^3H]DA and immunostaining are performed as described above.

[4] = system: dopaminergic neurons in rat primary mesencephalic neuron-glia cultures; assay: [3H]DA uptake in LPS-treated mesencephalic neuron-glia cultures; type: cell-based; conditions: for DA uptake, post-treatment with DM: LPS 20 ng/ml 12 h then removed

## Oc1ccc2c(c1)[C@@]13CCCC[C@H]1[C@@H](C2)NCC3 [3-HM, 3-hydroxymorphinan]
[1]; 3-HM 5 μM pretreatment, LPS 10 ng/ml, LPS alone reduced by 51%
  number of dopaminergic neurons: 97 % of the vehicle-treated control cultures
[1]; 3-HM pretreatment, LPS 10 ng/ml, LPS alone 43%
  average length of dopaminergic neuronal neurites: 110 % of the vehicle-treated control cultures
[2]; 3-HM 1 μM, 10 days
  DA uptake with 3-HM-treated astroglia conditioned media: 151.3%
[2]; 3-HM 2.5 μM, 10 days
  DA uptake with 3-HM-treated astroglia conditioned media: 160.9%
[2]; 3-HM 5 μM, 10 days
  DA uptake with 3-HM-treated astroglia conditioned media: 197.8%
[2]; 3-HM 0.1-5 μM, 10 days
  DA uptake capacity in neuron-enriched cultures: failed to show a significant increase in the DA uptake capacity
[2]; 10% or 20% of microglia added back, 3-HM-treated, 10 days
  DA uptake, neuron-enriched cultures + microglia: failed to increase DA uptake
[2]; 40% of astroglia added back, 3-HM-treated, 10 days
  capacity of DA uptake, neuron-enriched cultures + astroglia: 135.8%
[2]; 50% of astroglia added back, 3-HM-treated, 10 days
  capacity of DA uptake, neuron-enriched cultures + astroglia: 158.3%
[3]; 3-HM 1-5 μM alone, 7 days
  increase of DA uptake capacity vs vehicle-treated control: 20-60%
[3]
  neurotrophic effect of compound alone in neuron-glia cultures: significant neurotrophic effect
[4]; 3-HM 5 μM, LPS 10 ng/ml, 7 days
  LPS-induced decrease in DA uptake: almost back to the vehicle-treated control values

## COc1ccc2c(c1)[C@@]13CCCC[C@H]1[C@@H](C2)N(C)CC3 [DM, d-3-methoxy-N-methylmorphinan]
[1]; DM 10^−5 M and 10^−14 M
  dendrite network (immunocytochemical analysis): more elaborate dendrite network
[1]; DM 10^−5 M, LPS 10 ng/ml
  attenuation of LPS-induced reduction in the number of TH-IR neurons: 37%
[1]; DM 10^−10 M
  dendrite network (immunocytochemical analysis): failed to show improvement
[1]; DM 10^−10 M, LPS 10 ng/ml
  dopaminergic neuron degeneration (TH-IR neuron number): no protective effects
[1]; DM 10^−14 M, LPS 10 ng/ml
  attenuation of LPS-induced reduction in the number of TH-IR neurons: 28%
[2]; DM 5 μM, vs vehicle-treated conditioned cultures
  neurotrophic effect of DM-treated astroglia conditioned media: failed to exhibit any neurotrophic effect
[3]
  neurotrophic effect of compound alone in neuron-glia cultures: not observed
[4]; DM 10^−13 and 10^−14 M, 30 min pretreatment, LPS 10 ng/ml, 7 days
  LPS-induced decrease in [3H]-dopamine uptake: equipotent neuroprotective effect
[4]; DM 10^−5 and 10^−14 M post-treatment
  DA uptake, post-treatment with DM: showed a protective effect
[4]; DM 10^−10 M post-treatment
  DA uptake, post-treatment with DM: but not at 10^−10 M

## CCCC(CCC)C(=O)O [VPA, Valproic acid]
[1]; VPA 0.6 mM alone
  DA neuron morphology (anti-TH), VPA alone: promoted neurite formation and inter-neuronal networks
[1]; VPA 0.6 mM, alone or with LPS, vs vehicle control
  TH immunostaining in cell bodies and neuronal processes: enhanced the TH immunostaining
[1]; VPA 0.2-0.6 mM pretreatment, LPS 20 ng/ml
  LPS-induced decrease of TH-ir neurons and loss of neuronal process (morphology): reversed by VPA pretreatment in a dose-dependent manner
[1]; VPA 0.2 to 0.6 mM, 48 hours pretreatment, LPS 10 ng/ml, 7 days
  LPS-induced morphological changes of DA neurons: prevented by VPA pretreatment
[1]; VPA pretreatment 48 h, significant effect at 0.2, 0.4 and 0.6 mM, LPS 20 ng/ml 72 h
  LPS-induced loss of TH-ir neurons: prevented by VPA pretreatment in a concentration-dependent manner
[2]; neuron-enriched cultures, 7 days, drug 0.6 mM or conditioned medium
  increase in DA uptake: less than 2 fold
[3]; VPA 0.6 mM for 7 days
  capacity of [3H]DA uptake vs vehicle-treated control: marked increase
  number of TH-IR neurons vs vehicle-treated control: marked increase
[3]; VPA 0.6 mM, 7 days
  spontaneous DA neuronal death (DA uptake): significantly protected DA neurons from spontaneous neuronal death
[4]; VPA 0.6 mM alone, no LPS
  DA uptake levels, VPA alone: did not affect DA uptake levels
[4]; VPA 0.6 mM, 6 hours pretreatment, LPS 10 ng/ml
  neuroprotection against LPS neurotoxicity (DA uptake): failed to induce a significant effect
[4]; VPA 0.6 mM, 12 hours pretreatment, LPS 10 ng/ml
  neuroprotection against LPS neurotoxicity (DA uptake): complete neuroprotection
[4]; VPA 0.6 mM, 48 hours pretreatment, LPS 10 ng/ml
  neuroprotection against LPS neurotoxicity (DA uptake): further increase in DA uptake levels
[4]; VPA 0.6 mM, 48 h pretreatment, LPS 20 ng/ml
  LPS-induced decrease in DA uptake: completely restored
[4]; VPA 0.6 mM, alone or with LPS 10 ng/ml
  DA uptake levels vs untreated control: significantly higher than those in the untreated control
[4]; VPA 0.05-0.6 mM, 48 h pretreatment, LPS 20 ng/ml 3 days
  LPS-induced reduction of DA uptake: concentration-dependently prevented
[4]; VPA various doses, 48 hours pretreatment, LPS 10 ng/ml 5 days
  LPS-induced loss of DA uptake capacity: robustly blocked
